# Measured values reported in patent US9969726B2, “Metabotropic glutamate receptor negative allosteric modulators (NAMS) and uses thereof” (Sanford-Burnham Medical Research Institute, priority 2014, dated 2018).
# Read-outs that look alike come from different tables or passages of the source.
# Key:
# R6/2 mice = settings: 20 mg/kg daily subcutaneous injection beginning at 4 weeks; cited from earlier work
# [1] = test system: cultured spinal cord astrocytes; settings: astrocytes from wild-type and mGlu2 knockout mice, not mGlu3 knockout mice; cited from earlier work
# SMI-32+ motor neurons = settings: abrogated by anti-GDNF antibodies; cited from earlier work
# SOD1G93A mice = settings: continuous treatment with 1 or 5 mg/kg/day; cited from earlier work
# reserpine-treated rat = settings: cited from earlier work
# rat mGlu2 receptor = rat mGlu2 receptor (Rattus norvegicus (Rat), UniProt P31421); assay: mGlu2 in vitro GIRK thallium flux assay; assay type: cell-based; settings: NAM, EC80 glutamate, HEK-293 GIRK cells
# Method in brief: (§1)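 Cells expressing rat mGlu2 or mGlu3 with GIRK, plated overnight at 37 °C. Test compounds (0.3% DMSO, 10-point 1:3 series) preincubated 2.5 or 60 min, then thallium buffer plus EC80 glutamate added. Fluorescence slope 5–15 s after addition, normalised to vehicle and maximal agonist, fitted by four-parameter logistic.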
# rat mGlu3 receptor = rat mGlu3 receptor (Rattus norvegicus (Rat), UniProt P31422); assay: mGlu3 in vitro GIRK thallium flux assay; assay type: cell-based; settings: NAM; 2.5 min compound incubation; EC80 glutamate; HEK-293 GIRK cells
# Method in brief: as §1
# Male Wistar rats = assay: Forced Swim Test (FST); assay type: in vivo; settings: rat; immobility and swimming; FIG. 1
# Procedure: Male Wistar rats (Charles River, Hollister, Calif.), weighing 175-225 g (Charles River, Portage, Ind.) used for the forced swim test study were housed in pairs with food and water available ad libitum, except during testing, in a temperature and humidity controlled vivarium (21° C.). Rats were maintained on a 12-hour reverse light-dark cycle with lights on at 6 pm. All experimental procedures occurred during the dark cycle, were approved by the Institutional Animal Care and Use Committee of the Scripps Research Institute, and were in accordance with the Association for the Assessment and Accreditation of Laboratory Animal Care (AAALAC) guidelines. […]
# After the habituation swim and 24 hours prior to the test swim, rats were administered one of three doses of a mGlu2/3 NAM, with doses and pretreatment time based on maximal brain penetration as determined by PK studies for each compound. Blood and brain tissue were collected immediately after the FST and the PK properties of each compound were analyzed together with FST behavior. […] Twenty-four hours after their first exposure, the animals were again placed in the swim apparatus for 5 min, and behaviors were monitored from above by video camera for subsequent analysis. The rater of the behavioral patterns was blind with respect to the experimental conditions being scored. […]
# [2] = PK: brain and plasma levels collected after the FST; assay type: in vivo, rat; settings: Wistar
# Procedure: After the habituation swim and 24 hours prior to the test swim, rats were administered one of three doses of a mGlu2/3 NAM, with doses and pretreatment time based on maximal brain penetration as determined by PK studies for each compound. Blood and brain tissue were collected immediately after the FST and the PK properties of each compound were analyzed together with FST behavior. The modified forced swim test was carried out as described previously in Cryan et al., 2003. Briefly, rats were taken from the vivarium and immediately placed individually for 15 min in Pyrex cylinders (21×46 cm; Fisher Scientific, Tustin, Calif.), which were filled with water to a depth of 30 cm. The testing room was bright, and two bright (60-watt) lamps provided extra illumination above the cylinders. The rats were removed 15 min later, dried, and placed in their home cage. Twenty-four hours after their first exposure, the animals were again placed in the swim apparatus for 5 min, and behaviors were monitored from above by video camera for subsequent analysis. The rater of the behavioral patterns was blind with respect to the experimental conditions being scored. A time sampling technique was employed whereby the predominant behavior in each 5-sec period of the 300-sec test was recorded. Climbing behavior consisted of upward-directed movements of the forepaws along the side of the swim chamber. Swimming behavior was defined as movement (usually horizontal) throughout the swim chamber, which also included crossing into another quadrant. Immobility was assigned when no additional activity was observed other than that required to keep the rat's head above water.
# [3] = Microsomal stability in vitro assay; assay type: in vitro ADME; settings: rat liver microsomes 1 mg/mL, 4 μM compound, 2 mM NADPH
# Procedure: Pooled rat liver microsomes (BD Biosciences, #452701) were preincubated with test compounds at 37.5° C. for 5 min in the absence of NADPH. The reaction was initiated by addition of NADPH and incubated under the same conditions. The final incubation concentrations were 4 μM test compound, 2 mM NADPH, and 1 mg/mL (total protein) liver microsomes in phosphate-buffered saline (PBS) at pH 7.4. One aliquot (100 μL) of the incubation mixture was withdrawn at 15 min time points and combined immediately with 100 μL of ACN/MeOH. After mixing, the sample was centrifuged at approximately 13000 rpm for 12 min. The supernatant was filtered and transferred into an autosampler vial and the amount of test compound was quantified using a Shimadzu LCMS 2010EV mass spectrometer. The change of the AUC (area under the curve) of the parent compound as a function of time was used as a measure of microsomal stability. Test compounds were run in duplicate with a positive control.
# [4] = Plasma stability in vitro assay; assay type: in vitro ADME; settings: rat plasma, 100 μM, 37.5° C.
# Procedure: A 20 μL aliquot of a 10 mM solution in DMSO of the test compound was added to 2.0 mL of heparinized rat plasma (Lampire, P1-150N) to obtain a 100 μM final solution. The mixture was incubated for 1 h at 37.5° C. Aliquots of 100 μL were taken at 15 min intervals and diluted with 100 μL of MeOH/ACN. After mixing, the sample was centrifuged at approximately 13000 rpm for 12 min. The supernatant was filtered and transferred into an autosampler vial and the amount of test compound was quantified using the Shimadzu LCMS-2010EV system. The change of the AUC of the parent compound in function of time was used as a measure of plasma stability.
# [5] = 2.5 min compound incubation, read-out: mGlu2 EC50 (μM) (2.5 min)
# [6] = read-out: mGlu2 EC50 (μM) (60 min), 60 min compound incubation
# [7] = rat brain tissue, read-out: Brain
# [8] = mGlu2 EC50 (μM) (60 min), 60 min compound incubation
# Chain of rat mGlu2 receptor (P31421 19-872): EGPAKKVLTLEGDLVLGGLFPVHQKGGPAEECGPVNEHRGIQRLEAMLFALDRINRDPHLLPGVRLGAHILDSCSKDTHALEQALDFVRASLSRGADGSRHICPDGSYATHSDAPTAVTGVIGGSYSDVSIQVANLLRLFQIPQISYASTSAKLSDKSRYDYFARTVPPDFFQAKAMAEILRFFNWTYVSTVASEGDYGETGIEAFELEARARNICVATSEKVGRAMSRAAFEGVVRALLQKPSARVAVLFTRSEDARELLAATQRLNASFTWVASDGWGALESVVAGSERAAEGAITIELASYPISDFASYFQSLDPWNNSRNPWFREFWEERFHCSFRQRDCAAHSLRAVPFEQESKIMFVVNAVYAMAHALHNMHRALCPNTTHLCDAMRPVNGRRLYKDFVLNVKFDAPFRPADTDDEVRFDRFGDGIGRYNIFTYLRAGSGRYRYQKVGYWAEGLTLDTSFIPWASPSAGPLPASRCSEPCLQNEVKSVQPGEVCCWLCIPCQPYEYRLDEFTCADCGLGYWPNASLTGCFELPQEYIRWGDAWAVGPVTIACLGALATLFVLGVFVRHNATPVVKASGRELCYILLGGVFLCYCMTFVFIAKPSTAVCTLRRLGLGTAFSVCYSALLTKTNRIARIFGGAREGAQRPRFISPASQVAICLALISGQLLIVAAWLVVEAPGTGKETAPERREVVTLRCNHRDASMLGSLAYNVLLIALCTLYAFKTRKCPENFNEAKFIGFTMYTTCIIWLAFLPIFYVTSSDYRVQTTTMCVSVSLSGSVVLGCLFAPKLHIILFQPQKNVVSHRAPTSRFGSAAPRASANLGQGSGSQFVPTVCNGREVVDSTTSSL
# Chain of rat mGlu3 receptor (P31422 23-879): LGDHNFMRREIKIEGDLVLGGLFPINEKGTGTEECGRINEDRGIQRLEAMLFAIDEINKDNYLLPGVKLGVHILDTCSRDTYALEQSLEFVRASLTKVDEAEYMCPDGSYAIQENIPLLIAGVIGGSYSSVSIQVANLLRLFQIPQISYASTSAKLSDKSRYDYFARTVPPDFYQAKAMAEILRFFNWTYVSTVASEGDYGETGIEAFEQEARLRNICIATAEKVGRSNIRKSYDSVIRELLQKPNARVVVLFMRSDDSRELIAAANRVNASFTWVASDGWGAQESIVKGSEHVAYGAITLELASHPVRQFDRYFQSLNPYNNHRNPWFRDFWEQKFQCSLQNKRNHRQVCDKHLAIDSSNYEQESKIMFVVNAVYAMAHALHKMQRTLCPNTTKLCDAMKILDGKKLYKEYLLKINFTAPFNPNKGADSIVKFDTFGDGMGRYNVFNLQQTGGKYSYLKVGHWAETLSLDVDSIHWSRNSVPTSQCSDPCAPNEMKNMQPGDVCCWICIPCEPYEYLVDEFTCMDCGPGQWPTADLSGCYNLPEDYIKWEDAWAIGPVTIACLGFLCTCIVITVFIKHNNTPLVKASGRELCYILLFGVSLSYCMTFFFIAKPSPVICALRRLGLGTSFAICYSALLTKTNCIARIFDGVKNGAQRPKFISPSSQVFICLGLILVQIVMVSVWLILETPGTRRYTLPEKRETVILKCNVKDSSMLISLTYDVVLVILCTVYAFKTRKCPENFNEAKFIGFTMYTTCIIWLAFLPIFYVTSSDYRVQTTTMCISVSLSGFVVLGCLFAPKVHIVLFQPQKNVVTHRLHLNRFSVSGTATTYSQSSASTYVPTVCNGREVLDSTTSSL
Compound,phenotype in R6/2 mice (R6/2 mice),GDNF levels [1],protection of motor neurons against excitotoxic death (SMI-32+ motor neurons),neurological disability (SOD1G93A mice),"locomotor activity (reserpine-treated rat; intracerebroventricular 1, 5, 10, 20 nmol/2 μl, reserpine 5 mg/kg ip)","reversal of reserpine-induced akinesia (reserpine-treated rat; systemic 0.1, 1, 10 mg/kg ip)",EC50 (rat mGlu2 receptor; [5]),EC50 (rat mGlu2 receptor; [6]),EC50 (rat mGlu3 receptor),antidepressant activity in the Forced Swim Test (Male Wistar rats),"concentration at 24 h [2, 7]","concentration at 24 h ([2]; rat plasma, read-out: Plasma)",EC50 (rat mGlu2 receptor; [8]),"Microsomal Stability, Percent Remaining @ 1 hour [3]","Plasma Stability, Percent Remaining @ 1 hour [4]"
N[C@@]1(C(=O)O)CO[C@H]2[C@H](C(=O)O)[C@H]21 [LY379268],dramatically improves the phenotype,enhanced GDNF levels,protected,beneficial effect on neurological disability,dose-dependent increase in locomotor activity,did not reverse reserpine-induced akinesia,–,–,–,–,–,–,–,–,–
"O=C1CC(c2ccnc(Br)c2)=Nc2ccc(C(F)(F)F)cc2N1 [Example 191, 4-(2-Bromopyridin-4-yl)-8-(trifluoromethyl)-1,3-dihydro-2H-benzo[b][1,4]diazepin-2-one]",–,–,–,–,–,–,0.25 µM,0.08 µM,0.18 µM,decreasing immobility and increasing swimming,1430 ± 460 nM,280 ± 60 nM,–,–,–
"O=C(O)c1cc(-c2cccc(-c3nc(-c4ccc(C(F)(F)F)nc4)cc(C(F)(F)F)n3)c2)ccc1F [Example 73, 4-Fluoro-3′-(4-(trifluoromethyl)-6-(6-(trifluoromethyl)pyridin-3-yl)pyrimidin-2-yl)biphenyl-3-carboxylic Acid]",–,–,–,–,–,–,0.82 µM,0.17 µM,1.18 µM,–,140 ± 90 nM,9010 ± 2230 nM,–,–,–
"O=C(O)c1cc(F)cc(-c2cccc(-c3nsc(-c4ccoc4)n3)c2)c1 [Example 43, 5-Fluoro-3′-(5-(furan-3-yl)-1,2,4-thiadiazol-3-yl)biphenyl-3-carboxylic Acid]",–,–,–,–,–,–,0.17 µM,–,3.43 µM,–,210 ± 40 nM,4690 ± 780 nM,0.11 µM,66%,95%
"Cc1cc2c(cc1C(F)(F)F)NC(=O)CC(c1cccc(S(=O)(=O)c3ncccn3)c1)=N2 [Example 137, 7-Methyl-4-(3-(pyrimidin-2-ylsulfonyl)phenyl)-8-(trifluoromethyl)-1H-benzo[b][1,4]diazepin-2(3H)-one]",–,–,–,–,–,–,0.45 µM,0.06 µM,0.3 µM,–,–,–,–,68%,66%
"N#Cc1cc(C2=Nc3ccc(Br)cc3NC(=O)C2)ccn1 [Example 182, 4-(8-Bromo-2-oxo-2,3-dihydro-1H-benzo[b][1,4]diazepin-4-yl)picolinonitrile]",–,–,–,–,–,–,0.04 µM,0.04 µM,0.04 µM,decreasing immobility and increasing swimming,280 ± 100 nM,160 ± 30 nM,–,–,–
"Cc1cc2c(cc1C(F)(F)F)NC(=O)CC(c1cccc(Sc3ncccn3)c1)=N2 [Example 136, 7-Methyl-4-(3-(pyrimidin-2-ylthio)phenyl)-8-(trifluoromethyl)-1H-benzo[b][1,4]diazepin-2(3H)-one]",–,–,–,–,–,–,0.88 µM,0.04 µM,0.81 µM,–,–,–,–,90%,99%
"O=C(O)c1cc(-c2cccc(-c3nsc(-c4ccccc4)n3)c2)ccc1F [Example 38, 4-Fluoro-3′-(5-phenyl-1,2,4-thiadiazol-3-yl)biphenyl-3-carboxylic Acid]",–,–,–,–,–,–,0.1 µM,–,0.52 µM,–,–,–,0.05 µM,2%,65%
"O=C(O)c1cc(-c2cccc(-c3nc(-c4ccoc4)cc(C(F)(F)F)n3)c2)ccc1F [Example 94, 4-Fluoro-3′-(4-(furan-3-yl)-6-(trifluoromethyl)pyrimidin-2-yl)biphenyl-3-carboxylic Acid]",–,–,–,–,–,–,–,0.14 µM,0.28 µM,–,490 ± 60 nM,15900 ± 950 nM,–,–,–
"O=C(O)c1cccc(-c2cccc(-c3cc(-c4ccccc4)on3)c2)c1 [Example 49, 3′-(5-Phenylisoxazol-3-yl)-[1,1′-biphenyl]-3-carboxylic Acid]",–,–,–,–,–,–,> 10 µM,–,> 10 µM,–,500 ± 50 nM,19200 ± 2100 nM,> 30 µM,–,–
"O=C(O)c1cc(F)cc(-c2cccc(-c3nc(-c4ccc(C(F)(F)F)nc4)cc(C(F)(F)F)n3)c2)c1 [Example 76, 5-Fluoro-3′-(4-(trifluoromethyl)-6-(6-(trifluoromethyl)pyridin-3-yl)pyrimidin-2-yl)biphenyl-3-carboxylic Acid]",–,–,–,–,–,–,1.53 µM,0.09 µM,1.61 µM,–,–,–,–,95%,100%
"COc1ccc(-c2cc(C(F)(F)F)nc(-c3cccc(-c4ccc(F)c(C(=O)O)c4)c3)n2)cc1 [Example 87, 4-Fluoro-3′-(4-(4-methoxyphenyl)-6-(trifluoromethyl)pyrimidin-2-yl)biphenyl-3-carboxylic Acid]",–,–,–,–,–,–,1.07 µM,0.06 µM,1 µM,–,–,–,–,92%,97%
